From patent US6114326A, “Use of cabergoline in the treatment of restless legs syndrome” (priority 1999, dated 2000)
Like-named read-outs stand apart in the source and are kept apart here.

Experiments:
[1] = system: restless legs syndrome patients; assay: Prior treatment history of the trial patients
Experimental: See also, Stiasny K., Oertel W. H., Schuiler P. (1998). Cabergoline in RLS, ENS, Nice, Abstract.
Efficacy was assessed by polysomnography and subjective ratings. […] At study entry all patients were comedicated with domperidone (20 mg TID) and five were still under levodopa therapy (400-800 mg).
Subjects. Nine patients (seven women and two men, mean age 54.1±8.7, range 38.1-64.3 years) with idiopathic RLS for 23.1±13.7 years (range 5-47 years) participated. […] At study entry five patients were on levodopa with dosages ranging from 400-800 mg. […] The remaining four patients were off any specific RLS medication during baseline investigation. […] At baseline conditions the physician considered the patients to be extremely ill (2), very ill (4) or markedly ill (3).

[2] = cited from earlier work
[3] = system: restless legs syndrome patients; details: cited from earlier work
[4] = system: restless legs syndrome patients; details: open clinical trials of opioids; cited from earlier work
[5] = system: restless legs syndrome patients; details: in vivo; cited from earlier work
[6] = system: restless legs syndrome patients; details: 7.5 mg, cited from earlier work
[7] = system: restless legs syndrome patients; details: cited from earlier work; remark: listed apart in the source

N[C@@H](Cc1ccc(O)c(O)c1)C(=O)O [L-dopa]
benefit of previous levodopa therapy ([1]; all patients, standard or standard and slow release): partial benefit | half-life ([2]; levodopa, regular release): 2 to 4 h | suppression of RLS (in words) ([3]; 100 mg with carbidopa 10 mg, most cases): completely suppresses RLS | rebound (augmentation) of PLMS in last part of the night ([3]; 100 mg with carbidopa 10 mg): often observed | rate of augmentation ([3]; 12 week study, Callado-Seidel et al.): 27% | patients with augmentation reporting 3 major symptoms of increased severity ([3]; 22 RLS patients with augmentation): 100% | rate of augmentation in PLMS patients ([3]; Allen and Earley, Sleep 1996): 31% | rate of augmentation in RLS patients ([3]; Allen and Earley, Sleep 1996): 82% | RLS patients with augmentation requiring a medication change ([3]; Allen and Earley): 50% | patients who responded to levodopa ([3]; Earley and Allen): 21 of 51 | time until patients no longer respond well (tolerance) ([3]; L-Dopa or L-Dopa plus dopa-decarboxylase-inhibitor, usually): ≤ 6 months | patients reporting increased movement in other body parts ([3]; RLS patients with augmentation): 7% | tolerance (in words) ([3]; RLS): common | reduction of RLS at bedtime and PLMS throughout the night (in words) ([3]; double-blind PSG study, administered twice at night): significant reduction | efficacy in RLS (in words) ([3]; with peripheral carboxylase inhibitor, 10:1 ratio): effective

C=CCN1CC[C@]23c4c5ccc(O)c4O[C@H]2C(=O)CC[C@@]3(O)[C@H]1C5 [naloxone]
reversal by naloxone (in words) [4]: reversible

NCC1(CC(=O)O)CCCCC1 [gabapentin]
possible side effects [5]: dizziness, sleepiness, fatigue, increased appetite, and unsteadiness

CC(C)C[C@H]1C(=O)N2CCC[C@H]2[C@]2(O)O[C@](NC(=O)[C@@H]3C=C4c5cccc6[nH]c(Br)c(c56)C[C@H]4N(C)C3)(C(C)C)C(=O)N12 [Bromocriptine]
side effect under prior treatment ([1]; bromocriptine 5 mg, one patient): severe arterial hypotension | patients with subjective improvement in restlessness and paresthesia compared to placebo ([6]; 1 to 3 hours prior to sleep, double blind crossover): 5 of 6 | side effects ([6]; one patient): transient nasal stuffiness and lightheadedness

CCCN1C[C@H](CSC)C[C@@H]2c3cccc4[nH]cc(c34)C[C@H]21 [Pergolide]
half-life ([2]; pergolide): 7 to 16 h | effect in patients who developed augmentation under levodopa ([7]; 6 month open label trial): some effect | patients who responded well to pergolide ([7]; Earley and Allen): 19 of 26 | pergolide patients with augmentation ([7]; Earley and Allen): 4 of 26 | side effects ([7]; pergolide with low dose L-dopa): orthostatic hypotension and gastrointestinal problems | patients suffering from augmentation ([7]; pergolide, Earley and Allen): 15% | augmentation under pergolide (in words) ([7]; two open trials, follow-up 6 to 28 and 2 to 39 months): to a lower degree and less severe | clinical improvement (in words) ([7]; with low dose L-dopa, patients not responding to L-dopa alone): clinical improvement
